Source: patent publication US8501752B2, “Methods for treating cancer and other pathological proliferating disorders by inhibiting mitosis using pyrrolo[2,3-d]pyrimidines” (Duquesne University of the Holy Ghost, priority 2005, dated 2013)
“Also recorded” adds a separate entry of the source. Read-outs that look alike come from different tables or passages of the source.

Experiments:
[1] = test system: MCF-7/VP cells; assay: Cytotoxicity, MCF-7/VP cells that overexpress MRP1; settings: for Resistance (MCF-7/VP relative to MCF-7): MRP1
Text: (§2) These cell lines are resistant to anticancer drugs due to overexpression of the transport proteins P-glycoprotein or MRP1.

[2] = test system: T24, MCF-7, NCI/ADR, MCF-7/VP; assay: Cytotoxicity, panel of human tumor cell lines of Table 3 (text summaries)
Text: as §2

[3] = test system: NCI/ADR cells; assay: Cytotoxicity, NCI/ADR cells that overexpress P-glycoprotein; settings: for Resistance (NCI/ADR relative to MCF-7): P-glycoprotein
Text: as §2

[4] = test system: MCF-7 cells; assay: Cytotoxicity, drug-sensitive MCF-7 cells
Text: as §2

[5] = test system: HL-60 human promyelocytic leukemia cells; assay: Flow cytometric cell cycle phase distribution; format: cell-based; settings: 24 hours treatment; for increase of the percentage of cells in the G2/M phases: HL-60; for cell cycle distribution, G2/M / cell cycle distribution, G9/G1 / cell cycle distribution, S: percentage of HL-60 cells
Procedure: Flow cytometric analyses were used to assess the effects of Compound 1 and various antimicrotubule drugs on the cell cycle phase distributions of HL-60 human promyelocytic leukemia cells. The percentage of cells in the G2/M phases were increased approximately 2-fold by treatment of the cells for 24 hours with either TAXOL (paclitaxel), vinblastine, colchicine, or Compound 1.

[6] = target: T1, P-glycoprotein (Homo sapiens, UniProt P08183); assay: P-glycoprotein antagonism: sensitivity of NCI/ADR cells to vinblastine; format: cell-based; settings: for effect on P-glycoprotein-mediated resistance (in words): absence or presence of 50 nM vinblastine
T1 construct: NCI/ADR cells that overexpress P-glycoprotein; endogenous in cells; host or cells: NCI/ADR cells
Text: To determine if this is due to inhibition of drug transport activity by these proteins, the effects of these compounds on P-glycoprotein were further characterized. The effects of the compounds on the sensitivity of NCI/ADR cells to vinblastine and of MCF-7/VP cells to vincristine were examined to evaluate antagonism of P-glycoprotein and MRP1, respectively. FIGS. 4a-b present graphs of antagonism score versus concentration for P-glycoprotein and MRP1, respectively.
The Pgp antagonism score is calculated as the percentage survival of cells in the absence of vinblastine/percentage survival in the presence of vinblastine. […] The MRP1 antagonism score is calculated as the percentage survival of cells in the absence of vincristine/percentage survival in the presence of vincristine. […] Concentrations of Compounds 1-5 above their IC50 toward MCF-7 cells are not indicated. Data for one of three similar experiments is shown.

[7] = test system: T24 human bladder carcinoma cells; assay: Cytotoxicity, T24 cells; format: cell-based; settings: for IC50: mean ± SEM for 3 experiments
[8] = test system: NCI 60 human tumor cell lines; assay: NCI IVCLSP growth inhibition, whole panel (text summaries); format: cell-based; settings: NCI 60 tumor panel
Procedure: FIG. 1 presents nine compounds that were tested using the National Cancer Institute (NCI) 60 human tumor cell lines. The cells lines, which represent leukemia, melanoma, and cancers of the lung, colon, brain, ovary, breast, prostate, and kidney, are listed in Table 1.
Compounds 1-9 were tested according to the NCI Developmental Therapeutics Program (DTP) In Vitro Cell Line Screening Project (IVCLSP). […] Methodology for testing under the IVCLSP is as follows: The human tumor cell lines of the cancer screening panel are grown in RPMI 1640 medium containing 5% fetal bovine serum and 2 mM L-glutamine. For a typical screening experiment, cells are inoculated into 96 well microtiter plates in 100 μL at plating densities ranging from 5,000 to 40,000 cells/well depending on the doubling time of individual cell lines. After cell inoculation, the microtiter plates are incubated at 37° C., 5% CO2, 95% air and 100% relative humidity for 24 h prior to addition of experimental drugs.
After 24 h, two plates of each cell line are fixed in situ with TCA, to represent a measurement of the cell population for each cell line at the time of drug addition (Tz). Experimental drugs are solubilized in dimethyl sulfoxide at 400-fold the desired final maximum test concentration and stored frozen prior to use. At the time of drug addition, an aliquot of frozen concentrate is thawed and diluted to twice the desired final maximum test concentration with complete medium containing 50 μg/ml gentamicin. Additional four, 10-fold or ½ log serial dilutions are made to provide a total of five drug concentrations plus control. Aliquots of 100 μl of these different drug dilutions are added to the appropriate microtiter wells already containing 100 μl of medium, resulting in the required final drug concentrations.
Following drug addition, the plates are incubated for an additional 48 h at 37° C., 5% CO2, 95% air, and 100% relative humidity. For adherent cells, the assay is terminated by the addition of cold TCA. Cells are fixed in situ by the gentle addition of 50 μl of cold 50% (w/v) TCA (final concentration, 10% TCA) and incubated for 60 minutes at 4° C. The supernatant is discarded, and the plates are washed five times with tap water and air dried. Sulforhodamine B (SRB) solution (100 μl) at 0.4% (w/v) in 1% acetic acid is added to each well, and plates are incubated for 10 minutes at room temperature. After staining, unbound dye is removed by washing five times with 1% acetic acid and the plates are air dried. Bound stain is subsequently solubilized with 10 mM trizma base, and the absorbance is read on an automated plate reader at a wavelength of 515 nm. For suspension cells, the methodology is the same except that the assay is terminated by fixing settled cells at the bottom of the wells by gently adding 50 μl of 80% TCA (final concentration, 16% TCA). Using the seven absorbance measurements [time zero, (Tz), control growth, (C), and test growth in the presence of drug at the five concentration levels (Ti)], the percentage growth is calculated at each of the drug concentrations levels. Percentage growth inhibition is calculated as: [(Ti−Tz)/(C−Tz)]×100 for concentrations for which Ti>/=Tz [(Ti−Tz)/Tz]×100 for concentrations for which Ti<Tz.
Three dose response parameters are calculated for each experimental agent. […] The drug concentration resulting in total growth inhibition (TGI) is calculated from Ti=Tz. […]

[9] = test system: A-10 rat smooth muscle cells; assay: Microtubule structure, indirect immunofluorescence, A-10 cells; format: cell-based; settings: 24 hours; 625 nM TAXOL, 167 nM vinblastine, 900 nM Compound 1
Procedure: Because of the morphological effects of Compound 1 on cultured cells and the NCI COMPARE analysis results described above, the effects of vinblastine, TAXOL (paclitaxel), and Compound 1 on microtubule structure were examined. For these studies, A-10 rat smooth muscle cells were used since they grow as flat monolayers that are amenable to imaging. The A-10 cells were treated for 24 hours with EtOH (control), 625 nM TAXOL (paclitaxel), 167 nM vinblastine, and 900 nM of Compound 1. Microtubules were then visualized by indirect immunofluoresence staining with B-tubulin antibodies. FIGS. 2a-d present representative fields for the control, TAXOL (paclitaxel), vinblastine, and Compound 1 (“149”), respectively. None of these compounds affected the morphology of stress fibers composed of microfilaments.

[10] = test system: p53; assay: Western blot, p53 expression in MCF-7 cells; format: cell-based, human; settings: 24 hours, various concentrations
Procedure: (§1) To further characterize the cell cycle effects of Compound 1 on human tumor cells, MCF-7 cells were treated for 24 hours with various concentrations of Compound 1, vinblastine, or TAXOL (paclitaxel). Cells were then harvested, lysed, and analyzed for levels of expression of p53 and WAF1 by Western Blot analyses. […] Compound 1 is identified as “149” in these figures. […] None of these treatments affected the expression of bcl-2 or P-tubulin in the MCF-7 cells.

[11] = test system: WAF1; assay: Western blot, WAF1 expression in MCF-7 cells; format: cell-based, human; settings: 24 hours, various concentrations
Procedure: as §1

[12] = read-out: Cytotoxicity IC50, MCF-7/VP, mean ± SEM for 3 experiments
[13] = read-out: Cytotoxicity IC50, NCI/ADR, mean ± SEM for 3 experiments
[14] = read-out: Cytotoxicity IC50, MCF-7, mean ± SEM for 3 experiments
[15] = Homo sapiens, MCF7-VP, read-out: drug sensitivity (IC50), MCF-7/VP
[16] = Homo sapiens, NCI/ADR-RES, read-out: drug sensitivity (IC50), NCI/ADR
[17] = Homo sapiens, MCF7, read-out: drug sensitivity (IC50), MCF-7

T1 sequence (P08183 whole entry): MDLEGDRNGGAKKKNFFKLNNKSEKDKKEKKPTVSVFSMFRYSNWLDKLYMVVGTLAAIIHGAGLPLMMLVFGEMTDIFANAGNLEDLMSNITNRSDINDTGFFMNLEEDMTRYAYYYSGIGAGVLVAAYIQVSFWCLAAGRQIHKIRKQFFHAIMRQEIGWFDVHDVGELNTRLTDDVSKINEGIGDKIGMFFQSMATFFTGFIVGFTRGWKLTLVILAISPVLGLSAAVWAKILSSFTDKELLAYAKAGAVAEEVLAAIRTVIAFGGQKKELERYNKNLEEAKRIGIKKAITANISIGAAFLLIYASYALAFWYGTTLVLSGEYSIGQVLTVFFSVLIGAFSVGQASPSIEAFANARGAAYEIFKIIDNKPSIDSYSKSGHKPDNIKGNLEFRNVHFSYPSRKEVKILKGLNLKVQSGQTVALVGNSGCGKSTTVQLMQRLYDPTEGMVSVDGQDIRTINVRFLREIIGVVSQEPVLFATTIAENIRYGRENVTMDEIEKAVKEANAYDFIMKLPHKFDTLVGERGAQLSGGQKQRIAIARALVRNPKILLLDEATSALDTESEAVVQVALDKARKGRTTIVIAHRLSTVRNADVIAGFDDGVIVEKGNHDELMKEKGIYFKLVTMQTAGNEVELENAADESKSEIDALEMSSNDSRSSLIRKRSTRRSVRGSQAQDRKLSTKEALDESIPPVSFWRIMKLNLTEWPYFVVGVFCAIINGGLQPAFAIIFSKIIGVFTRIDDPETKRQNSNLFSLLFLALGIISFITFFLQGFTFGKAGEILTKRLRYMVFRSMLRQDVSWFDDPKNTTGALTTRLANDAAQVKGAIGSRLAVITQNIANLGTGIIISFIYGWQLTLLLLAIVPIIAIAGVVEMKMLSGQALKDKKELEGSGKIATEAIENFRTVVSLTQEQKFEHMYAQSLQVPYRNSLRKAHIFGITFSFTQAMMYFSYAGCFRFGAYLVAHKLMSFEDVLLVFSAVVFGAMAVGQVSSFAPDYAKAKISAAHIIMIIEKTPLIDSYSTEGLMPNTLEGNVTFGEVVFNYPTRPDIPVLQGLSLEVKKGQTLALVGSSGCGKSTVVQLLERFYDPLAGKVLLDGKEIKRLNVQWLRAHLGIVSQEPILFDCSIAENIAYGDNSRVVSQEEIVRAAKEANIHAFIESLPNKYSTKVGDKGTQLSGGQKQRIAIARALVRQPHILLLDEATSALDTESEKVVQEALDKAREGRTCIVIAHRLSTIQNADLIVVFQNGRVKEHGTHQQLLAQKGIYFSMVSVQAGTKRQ

N.N.[Cl][Pt][Cl] [Cisplatin, cisplatin, reference compound]
Resistance (MCF-7/VP relative to MCF-7) [1]: 0.6
IC50 ([1]; read-out: drug sensitivity (IC50), MCF-7/VP, Table 4, MRP1 overexpressing, mean ± SEM for 3 experiments): 7 ± 2.9 µM
effect of P-glycoprotein / MRP1 overexpression on cell sensitivity (in words) [2]: insensitive to transporter expression
Resistance (NCI/ADR relative to MCF-7) [3]: 1.1
IC50 ([3]; read-out: drug sensitivity (IC50), NCI/ADR, Table 4, P-glycoprotein overexpressing, mean ± SEM for 3 experiments): 12.2 ± 4.2 µM
IC50 ([4]; read-out: drug sensitivity (IC50), MCF-7, Table 4, mean ± SEM for 3 experiments): 11.5 ± 4.1 µM

COc1cc2c(c(OC)c1OC)-c1ccc(OC)c(=O)cc1[C@@H](NC(C)=O)CC2 [Colchicine, colchicine]
increase of the percentage of cells in the G2/M phases [5]: approximately 2 fold
cell cycle distribution, G2/M [5]: 11.9 ± 0.3
cell cycle distribution, G9/G1 [5]: 84.1 ± 0.7
cell cycle distribution, S [5]: 4.0 ± 1.4

COc1ccc(CCc2cn(Cc3ccccc3)c3nc(N)nc(C)c23)cc1 [Compound 2]
IC50 [1, 12]: 22.7 ± 3.7 µM
effect on P-glycoprotein-mediated resistance (in words) [6]: dose-dependent sensitization
IC50 [3, 13]: 21.7 ± 4.4 µM
IC50 [4, 14]: 13 ± 3.5 µM
change of cytotoxic potency by substitution (in words) ([7]; T24, relative to unsubstituted Compound 5): decreased the cytotoxic potency
IC50 [7]: 31.7 ± 1.7 µM

COc1ccccc1CCc1cn(Cc2ccccc2)c2nc(N)nc(C)c12 [Compound 4]
GI50 values, level across the tumor cell lines (in words) [8]: micromolar to millimolar range
IC50 [1, 12]: 2.6 ± 0.1 µM
more potent than the others in reversing P-glycoprotein-mediated resistance ([6]; 50 nM vinblastine): approximately 10 fold
effect on P-glycoprotein-mediated resistance (in words) [6]: dose-dependent sensitization
effect on P-glycoprotein-mediated resistance (in words) ([6]; listed as 2-OMe analog): effective at reversing P-glycoprotein mediated resistance
cytotoxic potency, better than the 3- or 4-OMe [2]: about 10 times
cytotoxic potency, better than the unsubstituted phenyl analog Compound 5 [2]: ~5 times
effect of P-glycoprotein / MRP1 overexpression on cell sensitivity (in words) [2]: eliminated any resistance due to overexpression of either P-glycoprotein or MRP1
less potent as an antimitotic agent than the 3,4,5-triOMe analog [2]: about 10 times
cytotoxic potency (in words) ([2]; all tested cell lines): substantially increased the potency toward all of the tested cell lines
IC50 [3, 13]: 2.7 ± 0.4 µM
IC50 [4, 14]: 2.3 ± 0.6 µM
IC50 [7]: 2.5 ± 0.3 µM

Cc1nc(N)nc2c1c(CCc1ccccc1)cn2Cc1ccccc1 [Compound 5]
GI50 values, level across the tumor cell lines (in words) [8]: millimolar or less range for 52 of the tumor cell lines; also recorded: micromolar GI50 values for three of the tumor cell lines
IC50 [1, 12]: 118 ± 6 µM
effect on P-glycoprotein-mediated resistance (in words) [6]: dose-dependent sensitization
IC50 [3, 13]: 18.2 ± 7.4 µM
IC50 [4, 14]: 10.7 ± 4.7 µM
IC50 [7]: 12.7 ± 2.3 µM

CC(=O)O[C@H]1C(=O)[C@@]2(C)[C@H]([C@H](OC(=O)c3ccccc3)[C@]3(O)C[C@H](OC(=O)[C@H](O)[C@@H](NC(=O)c4ccccc4)c4ccccc4)C(C)=C1C3(C)C)[C@]1(OC(C)=O)CO[C@@H]1C[C@@H]2O [TAXOL (paclitaxel), paclitaxel]
effect on microtubule structure (in words) [9]: promoted increased staining of microtubule clusters
level of expression of p53 (in words) [10]: marked increases
level of expression of WAF1 (in words) [11]: marked increases
IC50 [1, 15]: 0.0028 ± 0.0006 µM
Resistance (MCF-7/VP relative to MCF-7) [1]: 1.1
increase of the percentage of cells in the G2/M phases [5]: approximately 2 fold
cell cycle distribution, G2/M [5]: 10.5 ± 0.1
cell cycle distribution, G9/G1 [5]: 67.3 ± 0.4
cell cycle distribution, S [5]: 22.2 ± 0.4
IC50 [3, 16]: 2.7 ± 0.5 µM
Resistance (NCI/ADR relative to MCF-7) [3]: 1080
IC50 [4, 17]: 0.0025 ± 0.0006 µM

CC[C@]1(O)C[C@H]2CN(CCc3c([nH]c4ccccc34)[C@@](C(=O)OC)(c3cc4c(cc3OC)N(C=O)[C@H]3[C@@](O)(C(=O)OC)[C@H](OC(C)=O)[C@]5(CC)C=CCN6CC[C@]43[C@@H]65)C2)C1 [Vincristine, vincristine, reference compound]
IC50 [1, 15]: 0.0093 ± 0.0014 µM
Resistance (MCF-7/VP relative to MCF-7) [1]: 15.5
effect of P-glycoprotein / MRP1 overexpression on cell sensitivity (in words) [2]: overexpression of MRP1 also confers substantial resistance
IC50 [3, 16]: 0.1 µM
Resistance (NCI/ADR relative to MCF-7) [3]: 167
IC50 [4, 17]: 0.0006 ± 0.0001 µM
